In patent publication US4734416A, “Pharmaceutically useful carbostyril derivatives” (Otsuka Pharmaceutical Co., Ltd., priority 1978, dated 1988):
Counter-ions that a name gives are not always drawn.

Experiments:
[1] = target: T1, enucleated ileum of a guinea pig (Cavia porcellus, UniProt P31389); test: Antihistamine activity test in vitro (enucleated guinea pig ileum, histamine retraction, pA2 by Van Rossam method); details: 10^-6 g/ml test compound, 5 minutes before histamine, 36° C.
T1 construct: the tissue of ileum is cut to a length of 2.5 to 3.0 cm and suspended in an organ bath; from tissue; host or cells: isolated ileum from the ileocecal region of male guinea pig
Method: As to the test method for determining antihistamine activity of a compound in vitro, a method of using an enucleated ileum of a guinea pig is generally accepted.
A male guinea pig having 300 to 500 g body weight is killed by blood letting. An ileum having a length of 15 cm being enculeated from the ileocecal region is dipped into Tyrode's solution (which is prepared from […], 0.2 g of KCl, 0.2 g of CaCl2, 1.0 g of glucose, 1.0 g of NaHCO3, 0.065 g of NaHPO4.2H2 O and 0.2135 g of MgCl2.6H2 O to make 1000 ml in total volume by adding water). Then the tissue of ileum is cut to a length of 2.5 to 3.0 cm and suspended in an organ bath filled with 30 ml of Tyrode's solution. The organ bath is kept at a temperature of 36° C. and a mixed gas consisting of 5% of CO2 and 95% of O2 is blown into the bath. 10 Minutes after the blowing, 10^-6 M of histamine is added to the bath to examine the sensitivity of the tissue and a reaction curve (control) with respect to the dosage of histamine is obtained. After the dosage of histamine-reaction curve (control) becomes constant, 10^-6 g/ml of a compound to be tested is added to the bath and further histamine is added 5 minutes later to obtain a dosage-reaction curve. Retraction of the ileum is recorded on a pen-recorder through an isotonic transducer [TD-112S manufactured by Nihon Koden]. Antihistamine activity of the test compound is determined as pA2 value by the "Van Rossam" method [J. M. Van Rossam; Arch. Inst. Pharmacodyn., 143, 299 (1963)] wherein the maximum retraction of ileum caused by histamine shown in the control curve is 100%.

[2] = Halothane anesthesia increasing activity (righting reflex); assay type: in vivo, mouse (male, ddy-strain); details: oral; for Time (minutes) between introduction of anesthesia and waking: 8 mg/kg, 1 hour before 4% Halothane
Method: Male mice of ddy-strain having about 20 g body weight are used. One test group consists of 10 mice. An aqueous Gummi Arabicum suspension of test compound (80 mg of a compound to be tested and 1 g of Gummi Arabicum/100 ml of physiological NaCl solution) is administered orally to each mouse at the dosage of 8 mg of test compound/kg body. One hour after the administration, each mouse is placed in a gas respiration chamber (13×13×24 cm) and oxygen gas containing 4% of Halothane [2-bromo-2-chloro-1,1,1-trifluoroethane] is blown into the chamber at the velocity of 2 l/min for 3 minutes. A mouse anaesthetized is taken out from the chamber and the time between the introduction of anesthesia to waking is measured by righting reflex as the index. To mice of the control group, 1% Gummi Arabicum aqueous physiological solution is orally administered at the dosage of 0.1 ml/10 g body. [Reference: M. J. Turnbull and J. W. Watkins: Br. J. Pharmac., 58, 27-35 (1976)]
Same procedures as mentioned in (II)-(A) are employed, except that the amount of test compound to be orally administered is changed in 4 steps at the dosage of 0.5 mg/kg, 1 mg/kg, 2 mg/kg and 4 mg/kg respectively to measure the relationship between the dosage and degree of strength of anesthesia increasing activity.

T1 sequence (P31389 whole entry): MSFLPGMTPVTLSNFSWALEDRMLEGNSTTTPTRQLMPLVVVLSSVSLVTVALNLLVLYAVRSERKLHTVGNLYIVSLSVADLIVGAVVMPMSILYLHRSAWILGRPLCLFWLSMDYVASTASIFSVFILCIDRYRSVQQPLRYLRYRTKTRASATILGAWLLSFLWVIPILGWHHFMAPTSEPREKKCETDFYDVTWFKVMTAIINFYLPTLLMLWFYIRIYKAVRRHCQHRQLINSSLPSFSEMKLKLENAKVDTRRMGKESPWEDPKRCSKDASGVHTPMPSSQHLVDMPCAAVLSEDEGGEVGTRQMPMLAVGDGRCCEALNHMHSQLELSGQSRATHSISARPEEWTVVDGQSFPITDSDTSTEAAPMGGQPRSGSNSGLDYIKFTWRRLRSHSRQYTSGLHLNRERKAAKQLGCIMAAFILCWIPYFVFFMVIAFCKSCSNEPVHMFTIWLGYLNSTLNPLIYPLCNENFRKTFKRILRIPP

In the case of `O=C1CCc2ccc(OCCCN3CCN(Cc4ccccc4)CC3)cc2N1` [Compound 14, 7-[3-(4-Benzylpiperazinyl)propoxy]-3,4-dihydrocarbostyril], the Kb [1] is reported as 0.794 nM and the “Time (minutes) between introduction of anesthesia and waking” value (shortened to “Time (minutes) between introduction”) [2] is reported as 7.5 ± 4.3 min.
For `O=C1CCc2ccc(OCCCN3CCN(CCO)CC3)cc2N1` [Compound 33, 7-{3-[4-(2-Hydroxyethyl)piperazinyl]propoxy}-3,4-dihydrocarbostyril], the Kb [1] was 95.5 nM and the “Time (minutes) between introduction” value [2] was 7.4 ± 2.6 min.
In the case of `CCCCCCN1C(=O)CCc2ccc(OCCCN3CCN(c4ccccc4)CC3)cc21` [Compound 38, 1-Hexyl-7-[3-(4-phenylpiperazinyl)propoxy)]-3,4-dihydrocarbostyril dihydrochloride], the Kb [1] is reported as 1.17 nM.
With `O=C1CCc2c(OCC(O)CN3CCN(c4ccccc4)CC3)cccc2N1Cc1ccccc1` (centres unmarked) [Compound 8, 1-Benzyl-5-[2-hydroxy-3-(4-phenylpiperazinyl)propoxy]-3,4-dihydrocarbostyril monohydrochloride] the Kb [1] was 0.0158 nM and the “Time (minutes) between introduction” value [2] was 7.5 ± 3.3 min.
In the case of `CC(=O)OC(COc1cccc2c1CCC(=O)N2)CN1CCN(c2ccccc2)CC1` (centres unmarked) [Compound 20, 5-[2-Acetyloxy-3-(4-phenylpiperazinyl)propoxy]-3,4-dihydrocarbostyril], the Kb [1] is reported as 1.23 nM and the “Time (minutes) between introduction” value [2] is reported as 9.8 ± 3.7 min.
With `Cc1cc(=O)[nH]c2cc(OCCCN3CCN(c4ccccc4)CC3)ccc12` [Compound 13, 4-Methyl-7-[3-(4-phenylpiperazinyl)propoxy]carbostyril] the Kb [1] was 0.407 nM and the “Time (minutes) between introduction” value [2] was 8.1 ± 2.7 min.
In the case of `O=C1CCc2ccc(OCCCN3CCN(C(=O)c4ccccc4)CC3)cc2N1` [Compound 35, 7-[3-(4-Benzoylpiperazinyl)propoxy]-3,4-dihydrocarbostyril], the Kb [1] is reported as 2.63 nM and the “Time (minutes) between introduction” value [2] is reported as 8.2 ± 3.7 min.
With `Cc1ccc(N2CCN(CCCOc3ccc4c(c3)NC(=O)CC4)CC2)cc1` [Compound 15, 7-{3-[4-(4-Methylphenyl)piperazinyl]propoxy}-3,4-dihydrocarbostyril] the Kb [1] was 0.331 nM and the “Time (minutes) between introduction” value [2] was 12.7 ± 3.5 min.
In the case of `Cc1ccc(N2CCN(CCCCOc3cccc4c3CCC(=O)N4)CC2)cc1` [Compound 10, 5-{4-[4-(4-Methylphenyl)piperazinyl]butoxy}-3,4-dihydrocarbostyril], the Kb [1] is reported as 1.26 nM and the “Time (minutes) between introduction” value [2] is reported as 7.9 ± 3.7 min.
For `COc1ccccc1N1CCN(CCCOc2ccc3ccc(=O)[nH]c3c2)CC1` [Compound 22, 7-{3-[4-(2-Methoxyphenyl)piperazinyl]propoxy}-carbostyril dihydrochloride], the Kb [1] was 11.7 nM and the “Time (minutes) between introduction” value [2] was 10.4 ± 4.1 min.
For `O=C1CCc2ccc(OCCCN3CCN(c4cccc(F)c4)CC3)cc2N1` [Compound 24, 7-{3-[4-(3-Fluorophenyl)piperazinyl]propoxy}-3,4-dihydrocarbostyril], the Kb [1] was 0.257 nM and the “Time (minutes) between introduction” value [2] was 11.6 ± 6.7 min.
In the case of `O=C1CCc2c(cccc2OCC(O)CN2CCN(c3ccccc3)CC2)N1` (centres unmarked) [Compound 1, 5-[2-Hydroxy-3-(4-phenylpiperazinyl)propoxy]-3,4-dihydrocarbostyril monohydrochloride], the Kb [1] is reported as 8.32 nM and the “Time (minutes) between introduction” value [2] is reported as 9.3 ± 4.9 min.
With `C=CCN1C(=O)CCc2c(OCC(O)CN3CCN(c4ccc(C)cc4)CC3)cccc21` (centres unmarked) [Compound 11, 1-Allyl-5-{2-hydroxy-3-[4-(4-methylphenyl)piperazinyl]propoxy}-3,4-dihydrocarbostyril] the Kb [1] was 0.617 nM and the “Time (minutes) between introduction” value [2] was 6.8 ± 2.2 min.
In the case of `O=c1cc(-c2ccccc2)c2ccc(OCCCN3CCN(c4ccccc4)CC3)cc2[nH]1` [Compound 27, 4-Phenyl-7-[3-(4-phenylpiperazinyl)propoxy]carbostyril], the Kb [1] is reported as 0.977 nM and the “Time (minutes) between introduction” value [2] is reported as 7.8 ± 3.2 min.
In the case of `O=C1CCc2cccc(OCCCN3CCN(c4ccccc4)CC3)c2N1` [Compound 19, 8-[3-(4-Phenylpiperazinyl)propoxy]-3,4-dihydrocarbostyril], the Kb [1] is reported as 10.2 nM and the “Time (minutes) between introduction” value [2] is reported as 9.3 ± 3.5 min.
For `COc1cc(C(=O)OC(COc2cccc3c2CCC(=O)N3)CN2CCN(c3ccccc3)CC2)cc(OC)c1OC` (centres unmarked) [Compound 21, 5-[2-(3,4,5-Trimethoxybenzoyloxy)-3-(4-phenylpiperazinyl)propoxy]-3,4-dihydrocarbostyril], the Kb [1] was 0.912 nM and the “Time (minutes) between introduction” value [2] was 8.1 ± 3.9 min.
For `CC(C)N1C(=O)CCc2ccc(OCCCN3CCN(c4ccccc4)CC3)cc21` [Compound 23, 1-(2-Propyl)-7-[3-(4-phenylpiperazinyl)propoxy]-3,4-dihydrocarbostyril dihydrochloride], the Kb [1] was 0.589 nM and the “Time (minutes) between introduction” value [2] was 7.6 ± 4.2 min.
For `COc1cc(N2CCN(CCCOc3ccc4c(c3)NC(=O)CC4)CC2)cc(OC)c1OC` [Compound 29, 7-{3-[4-(3,4,5-Trimethoxyphenyl)piperazinyl]propoxy}-3,4-dihydrocarbostyril dihydrochloride], the Kb [1] was 2.69 nM, the “Anesthesia increasing activity” value ([2]; 0.5 mg/kg) was 5.6 ± 2.8 min and the “Anesthesia increasing activity” value ([2]; 1 mg/kg) was 6.6 ± 3.1 min. The “Anesthesia increasing activity” value ([2]; 2 mg/kg) was 8.3 ± 3.7 min, the “Anesthesia increasing activity” value ([2]; 4 mg/kg) was 13.6 ± 4.9 min and the “Time (minutes) between introduction” value [2] was 9.3 ± 4.4 min.
With `O=C1CCc2ccc(OCCCN3CCN(c4ccccc4)CC3)cc2N1Cc1ccccc1` [Compound 12, 1-Benzyl-7-[3-(4-phenylpiperazinyl)propoxy]-3,4-dihydrocarbostyril] the Kb [1] was 6.17 nM and the “Time (minutes) between introduction” value [2] was 7.5 ± 3.5 min.
In the case of `O=C1CCc2cc(Cl)c(OCCCN3CCN(c4ccccc4)CC3)c(Br)c2N1` [Compound 28, 6-Chloro-8-bromo-7-[3-(4-phenylpiperazinyl)propoxy]-3,4-dihydrocarbostyril dihydrochloride], the Kb [1] is reported as 0.229 nM and the “Time (minutes) between introduction” value [2] is reported as 10.2 ± 5.8 min.
In the case of `O=C1CCc2ccc(OCC(O)CN3CCN(c4ccccc4)CC3)cc2N1` (centres unmarked) [Compound 2, 7-[2-Hydroxy-3-(4-phenylpiperazinyl)propoxy]-3,4-dihydrocarbostyril monohydrochloride], the Kb [1] is reported as 17.8 nM and the “Time (minutes) between introduction” value [2] is reported as 11.7 ± 5.6 min.
For `CC(COc1ccc2c(c1)NC(=O)CC2)CN1CCN(c2ccccc2)CC1` (centres unmarked) [Compound 25, 7-[2-Methyl-3-(4-phenylpiperazinyl)propoxy]-3,4-dihydrocarbostyril], the Kb [1] was 0.617 nM and the “Time (minutes) between introduction” value [2] was 7.8 ± 3.3 min.
In the case of `O=C1CCc2c(cccc2OCCCN2CCN(C3CCCCC3)CC2)N1` [Compound 30, 5-[3-(4-Cyclohexylpiperazinyl)propoxy]-3,4-dihydrocarbostyril], the Kb [1] is reported as 44.7 nM and the “Time (minutes) between introduction” value [2] is reported as 7.9 ± 3.7 min.
In the case of `CCCC(C)C1(CC)C(=O)NC(=O)NC1=O` (centres unmarked) [Pentobarbital, reference compound], the “Anesthesia increasing activity” value ([2]; 0.5 mg/kg) is reported as 5.3 ± 2.6 min, the “Anesthesia increasing activity” value ([2]; 1 mg/kg) is reported as 4.9 ± 3.5 min and the “Anesthesia increasing activity” value ([2]; 2 mg/kg) is reported as 6.3 ± 2.3 min. The “Anesthesia increasing activity” value ([2]; 4 mg/kg) was 8.1 ± 3.1 min.
